Assay [1] deals with mTOR/GbL/Raptor (mTORC1) (Homo sapiens, UniProt P42345). Briefly: mTOR/GbL/Raptor (mTORC1) ELISA assay. The class given is biochemical. The note with it: phosphorylation of 4E-BP1; 0.2 nM mTORC1, 10 μM ATP, 50 nM NHis-tagged 4E-BP1. The method, then: mTOR/GbL/Raptor (mTORC1) ELISA Assay
The measurement of mTORC1 enzyme activity was performed in an ELISA assay format following the phosphorylation of 4E-BP1 protein. All experiments were performed in the 384-well format. Generally, 0.5 μL DMSO containing varying concentrations of the test compound was mixed with 15 μL enzyme solution. Kinase reactions were initiated with the addition of 15 μL of substrates-containing solution. The assay conditions were as follows; 0.2 nM mTORC1, 10 μM ATP and 50 nM NHis-tagged 4E-BP1 in 20 mM Hepes, pH 7.2, 1 mM DTT, 50 mM NaCl, 10 mM MnCl2, 0.02 mg/mL BSA, 0.01% CHAPS, 50 mM β-glycerophosphate. Following an incubation of 120 minutes at ambient temperature, 20 μL of the reaction volume was transferred to a Ni-Chelate-coated 384-well plate. The binding step of the 4E-BP1 protein proceeded for 60 minutes, followed by washing 4 times each with 50 μL of Tris-buffered saline solution (TBS). Anti-phospho-4E-BP1 rabbit-IgG (20 μL, 1:5000) in 5% BSA-TBST (0.2% Tween-20 in TBS) was added and further incubated for 60 minutes. Incubation with a secondary HRP-tagged anti-IgG was similarly performed after washing off the primary antibody (4 washes of 50 μL). Following the final wash step with TBST, 20 μL of SuperSignal ELISA Femto (Pierce Biotechnology) was added and the luminescence measured using an EnVision plate reader.

In assay [2] the target is PI3Kα (Homo sapiens, UniProt P42336). The assay is described as follows: PI3K biochemical assay (PI3K-alpha, luciferase-luciferin ATP consumption). Conditions: 3 nM enzyme, 1 μM ATP, 10 μM PIP2; percent of ATP consumed. On the procedure:
PI3Kα activity was measured as the percent of ATP consumed following the kinase reaction using luciferase-luciferin-coupled chemiluminescence. Reactions were conducted in 384-well white, medium binding microtiter plates (Greiner). Kinase reactions were initiated by combining test compounds, ATP, substrate (PIP2), and kinase in a 20 μL volume in a buffer solution. The standard PI3Kalpha assay buffer was composed 50 mM Tris, pH 7.5, 1 mM EGTA, 10 mM MgCl2, 1 mM DTT and 0.03% CHAPS. The standard assay concentrations for enzyme, ATP, and substrate were 3 nM, 1 μM, and 10 μM, respectively. The reaction mixture was incubated at ambient temperature for approximately 2 h. Following the kinase reaction, a 10 μL aliquot of luciferase-luciferin mix (Promega Kinase-Glo) was added and the chemiluminescence signal measured using a Victor2 or EnVision (Perkin Elmer). Total ATP consumption was limited to 40-60% and IC50 values of control compounds correlate well with literature references. Substituting PI3Kα with PI3Kβ, PI3Kγ, or […], the inhibitory activity of the compounds for the other isoforms of PI3K were measured. For the PI3Kβ and PI3Kδ assays, enzyme concentrations were 10 nM and 4 nM, respectively. For the PI3Kγ assay, enzyme concentration was 40 nM, the incubation time was 1 h, and the concentration of MgCl2 in the assay buffer was 5 mM.

Our source for the IC50 values is patent US20140073628A1, “BENZOXAZEPINES ASN INHIBITORS OF P13K/M TOR AND METHODS OF THEIR USE AND MANUFACTURE” (priority 2010, published 2014).

pIC50: −log10 of the molar value.

Sequence of PI3Kα (P42336 whole entry): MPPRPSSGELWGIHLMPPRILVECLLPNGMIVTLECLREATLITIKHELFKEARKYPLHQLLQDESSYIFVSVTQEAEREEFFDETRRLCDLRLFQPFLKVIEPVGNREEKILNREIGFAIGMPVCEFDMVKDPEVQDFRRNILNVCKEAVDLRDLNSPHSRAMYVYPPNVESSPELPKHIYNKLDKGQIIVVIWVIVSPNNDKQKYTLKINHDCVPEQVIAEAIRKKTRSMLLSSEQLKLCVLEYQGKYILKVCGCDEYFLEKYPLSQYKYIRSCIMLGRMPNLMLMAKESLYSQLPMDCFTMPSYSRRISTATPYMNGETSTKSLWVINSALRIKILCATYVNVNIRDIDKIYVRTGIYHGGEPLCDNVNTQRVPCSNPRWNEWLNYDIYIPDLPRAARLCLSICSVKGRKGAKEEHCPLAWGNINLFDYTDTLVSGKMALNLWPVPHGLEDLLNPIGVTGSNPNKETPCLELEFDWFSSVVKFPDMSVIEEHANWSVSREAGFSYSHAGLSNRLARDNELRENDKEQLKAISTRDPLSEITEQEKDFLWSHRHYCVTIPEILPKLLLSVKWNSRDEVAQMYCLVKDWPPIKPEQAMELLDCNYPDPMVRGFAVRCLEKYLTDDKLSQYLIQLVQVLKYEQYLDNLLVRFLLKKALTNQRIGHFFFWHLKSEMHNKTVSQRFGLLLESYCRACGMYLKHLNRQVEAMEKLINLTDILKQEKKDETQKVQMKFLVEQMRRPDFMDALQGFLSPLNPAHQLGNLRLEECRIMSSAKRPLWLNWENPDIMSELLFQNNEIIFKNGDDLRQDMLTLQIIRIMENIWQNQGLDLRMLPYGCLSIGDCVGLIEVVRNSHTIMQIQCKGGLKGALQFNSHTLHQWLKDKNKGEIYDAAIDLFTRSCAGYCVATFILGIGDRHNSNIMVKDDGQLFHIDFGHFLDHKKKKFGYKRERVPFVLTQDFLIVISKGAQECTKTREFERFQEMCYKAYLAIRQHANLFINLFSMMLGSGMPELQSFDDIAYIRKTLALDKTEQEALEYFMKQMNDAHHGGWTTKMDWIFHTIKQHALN
Sequence of PI3Kα (P27986 whole entry partner): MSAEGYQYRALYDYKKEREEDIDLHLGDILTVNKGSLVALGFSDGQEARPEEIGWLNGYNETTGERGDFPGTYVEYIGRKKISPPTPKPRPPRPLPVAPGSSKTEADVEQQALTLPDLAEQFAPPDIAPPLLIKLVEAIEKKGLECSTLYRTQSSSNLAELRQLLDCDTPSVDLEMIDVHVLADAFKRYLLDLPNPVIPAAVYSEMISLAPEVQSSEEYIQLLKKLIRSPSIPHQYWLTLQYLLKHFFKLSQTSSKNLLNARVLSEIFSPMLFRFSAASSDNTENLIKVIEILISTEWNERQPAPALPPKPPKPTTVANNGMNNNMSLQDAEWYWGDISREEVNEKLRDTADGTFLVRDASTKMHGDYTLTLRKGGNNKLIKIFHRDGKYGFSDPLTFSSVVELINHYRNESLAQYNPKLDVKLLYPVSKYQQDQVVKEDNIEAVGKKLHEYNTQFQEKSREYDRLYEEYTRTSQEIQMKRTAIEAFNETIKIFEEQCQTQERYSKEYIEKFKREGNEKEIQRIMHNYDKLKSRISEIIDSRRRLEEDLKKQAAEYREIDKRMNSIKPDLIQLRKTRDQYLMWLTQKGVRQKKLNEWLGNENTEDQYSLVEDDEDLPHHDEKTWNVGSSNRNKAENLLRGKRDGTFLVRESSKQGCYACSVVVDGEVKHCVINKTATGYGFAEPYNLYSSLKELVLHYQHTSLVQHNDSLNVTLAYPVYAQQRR

In the case of `Cc1nc2cc(-c3ccc4c(c3)CN(c3nc(NC(C)C)nc(C)c3Cc3ccc(F)cc3)CCO4)ccc2[nH]1` [Compound 19, 5-[(4-fluorophenyl)methyl]-4-methyl-6-[7-(2-methyl-1H-benzimidazol-5-yl)-2,3-dihydro-1,4-benzoxazepin-4(5H)-yl]-N-(1-methylethyl)pyrimidin-2-amine], the pIC50 was 6.30 to 7.00 in assay [1] and 5.60 to 6.30 in assay [2].

On to `Cc1cc(N2CCOc3ccc(-c4ccc5[nH]cnc5c4)cc3C2)nc(N)n1` [Compound 43, 4-[7-(1H-benzimidazol-5-yl)-2,3-dihydro-1,4-benzoxazepin-4(5H)-yl]-6-methylpyrimidin-2-amine], for which the pIC50 in assay [1] and in assay [2] was 5.60 to 6.30 in each case.

For orientation: pIC50 means the negative decadic logarithm of the IC50, by convention in mol/L.
